Measured values taken from patent US20230324400A1, “MULTIPLEXED PROTEOMICS AND PHOSPHOPROTEOMICS” (The General Hospital Corporation, priority 2015, published 2023).

Experiments:
Assay type in all cases: cell-based
[1] = system: H3122 cell line (NSCLC, EML4-ALK fusion); test: Ceritinib sensitivity (IC50) of parental H3122 cell line; details: Homo sapiens, NCI-H3122; ALK-positive H3122 parental cell line
Procedure: (§1) In the particular study reported here, resistance to the small molecule ALK inhibitor Ceritinib was studied. The patient-derived cell line H3122 is a NSCLC line with an EML4-ALK fusion, and it is sensitive to Ceritinib. To simulate the clinical development of therapeutic resistance following initial treatment, this cell line was cultured over a period of 6 months with low but increasing doses of Ceritinib. […] These clones were expanded and comprise the cell lines LDKR1-4.
(§2) FIG. 5 is a schematic diagram showing the development of the cell lines. The ALK-positive H3122 cell line, which is sensitive to the ALK inhibitor Ceritinib (ICso=53 nM), was treated with escalating doses of Ceritinib over a period 6 months. Resistant clones LDKR1-4 were obtained with ICso values in a range from 1494 nM to 3897 nM.

[2] = system: LDKR1-4 cell lines (Ceritinib-resistant clones of H3122); test: Ceritinib sensitivity (IC50) of resistant clones LDKR1-4
Procedure: as §1, §2

[3] = target: T1, ALK (Homo sapiens, UniProt Q9UM73); test: Phosphoproteomic analysis of ALK phosphorylation after Ceritinib treatment, parental H3122; details: 300 nM Ceritinib, 24 hours
T1 sequence (Q9UM73 with tags, fused parts or gaps): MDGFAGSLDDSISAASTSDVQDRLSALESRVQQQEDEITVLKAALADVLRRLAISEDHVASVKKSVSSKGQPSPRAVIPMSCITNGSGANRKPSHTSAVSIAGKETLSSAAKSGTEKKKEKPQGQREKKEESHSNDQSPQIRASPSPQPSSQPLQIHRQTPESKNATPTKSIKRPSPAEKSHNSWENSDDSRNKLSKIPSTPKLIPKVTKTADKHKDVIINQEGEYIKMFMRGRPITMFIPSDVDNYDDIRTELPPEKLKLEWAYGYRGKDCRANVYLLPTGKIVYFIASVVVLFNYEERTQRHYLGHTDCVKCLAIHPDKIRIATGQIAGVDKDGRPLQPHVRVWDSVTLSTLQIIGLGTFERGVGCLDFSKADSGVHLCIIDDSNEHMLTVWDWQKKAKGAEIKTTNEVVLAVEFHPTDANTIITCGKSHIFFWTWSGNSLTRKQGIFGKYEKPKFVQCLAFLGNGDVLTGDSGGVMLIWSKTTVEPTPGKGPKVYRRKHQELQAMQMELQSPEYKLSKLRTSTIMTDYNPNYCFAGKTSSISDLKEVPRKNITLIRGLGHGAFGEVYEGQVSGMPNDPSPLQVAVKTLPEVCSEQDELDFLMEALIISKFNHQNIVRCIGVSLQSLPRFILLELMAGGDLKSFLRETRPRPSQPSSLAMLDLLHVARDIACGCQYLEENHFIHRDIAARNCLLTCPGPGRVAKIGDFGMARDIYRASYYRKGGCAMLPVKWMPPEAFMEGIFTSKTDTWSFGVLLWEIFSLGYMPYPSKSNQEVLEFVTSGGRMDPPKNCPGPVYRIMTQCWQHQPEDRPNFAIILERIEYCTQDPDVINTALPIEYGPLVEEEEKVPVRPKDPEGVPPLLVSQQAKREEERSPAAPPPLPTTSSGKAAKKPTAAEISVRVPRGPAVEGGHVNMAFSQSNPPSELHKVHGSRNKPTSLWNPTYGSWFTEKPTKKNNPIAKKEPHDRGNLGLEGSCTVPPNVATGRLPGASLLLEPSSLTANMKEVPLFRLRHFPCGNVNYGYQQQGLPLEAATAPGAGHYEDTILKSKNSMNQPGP
Procedure: (§3) The H3122 parental and LDKR1-4 cell lines were each grown in culture with or without the addition of Ceritinib for 24 hours, and harvested cells were subsequently processed for both proteomic and phosphoproteomic analyses. Specifically, each of the cell lines was cultured in RPMI-1640 media supplemented with 10% FBS, 100 units/mL penicillin, and 100 μg/mL streptomycin. Cells were treated for 24 hours with 300 nM Ceritinib (also known as LDK378). Cells were collected, and the cell pellets were resuspended in mammalian lysis buffer and lysed by passage through a 21 gauge needle. The lysate was centrifuged at 15,000×g for 5 minutes at 4° C., and insoluble debris was discarded.
(§4) The lysates were then prepared for mass spectrometry analysis. Samples were reduced with DTT, alkylated with iodoacetamide, and precipitated with methanol/chloroform. Protein was digested overnight at room temperature with endoproteinase Lys-C(obtained from Wako Chemicals, Richmond, VA) followed by digestion with sequencing-grade trypsin (obtained from Promega Corp., Madison, WI) for 6 hours at 37° C. Samples were quenched with 1% TFA and desalted using Sep-Pak C18 (SPE) cartridges (obtained from Waters Corp., Milford, MA). The peptide concentration of each sample was determined using a BCA assay. […]

[4] = target: T1, ALK; test: Phosphoproteomic analysis of ALK activity after Ceritinib treatment, resistant cell lines; details: LDKR1-4, 300 nM Ceritinib, 24 hours
Procedure: as §3, §4

For `Cc1cc(Nc2ncc(Cl)c(Nc3ccccc3S(=O)(=O)C(C)C)n2)c(OC(C)C)cc1C1CCNCC1` [Ceritinib], which IC50 [1] is on record?
Its IC50 is 53 nM.

What about the IC50 ([2]; Homo sapiens, NCI-H3122, resistant clones LDKR1-4, obtained after 6 months of escalating doses of Ceritinib) of the same molecule?
Its IC50 is 1490 to 3900 nM.

What about the “IC50 of resistant clones relative to parental sensitive cell line” value ([2]; four single resistant clones LDKR1-4 vs parental H3122) of the same molecule?
Its value is “at least twenty times higher”.

What about the “ALK Thr 1506/Tyr 1507/Ser 1509 phosphorylation, ratio to parental cell line with no drug” value [3] of the same molecule?
The value was “decreasing fourfold upon drug treatment”.

And the “ALK Tyr 1078 phosphorylation, ratio to parental cell line with no drug” value [3]?
The value was “decreased upon drug treatment”.

What about the “Inhibition of ALK activity in resistant cell lines” value [4] of the same molecule?
Its value is “continued to be effective at inhibiting ALK activity in at least three of the four resistant cell lines”.
